Results reported in patent US8709406B2, “Prevention and treatment of oxidative stress disorders by gluthathione and phase II detoxification enzymes” (Brassica Foundation for ChemoProtection Research, priority 2001, dated 2014).
Read-outs that look alike come from different tables or passages of the source.

Columns and labels:
Format in all cases: cell-based, human
[1] = tested on: ARPE-19 cells; experiment: Oxidant cytotoxicity (MTT viability, median effect analysis) and protection by 24 h sulforaphane pretreatment; settings: for EC50: Homo sapiens
Procedure: (§1) All experiments were performed in 96-well microliter plates. ARPE-19 and HaCaT cells were seeded at 10,000 cells per well and grown for 24 h before addition of sulforaphane, whereas L1210 cells (5,000 cells/well) were not incubated before sulforaphane treatment. Solutions of sulforaphane (5 mM) in dimethyl sulfoxide were diluted with the cognate culture medium to provide final inducer concentrations of 0.16-5.0 μM. The final DMSO concentrations were 0.1% by volume.
Tert-Butyl hydroperoxide (1 M) and 4-hydroxynonenal (25 mM) were dissolved in DMSO and diluted 1000-fold with serum-free medium before addition of serial dilutions to the microtiter plate wells. The final concentrations of DMSO were therefore less than 0.1% (by vol.). Menadione sodium bisulfite (0.5 M) and SIN-1 (0.5 M) were dissolved and added in PBS. ARPE-19 cells were exposed to menadione for 2 h and to tert-butyl hydroperoxide for 16 h, washed with PBS, and cell viability was determined by the MIT test. ARPE-19 cells were exposed to peroxynitrite for 2 h and 4-hydroxynonenal for 4 h, and the cells were then incubated in serum-free media for 22 and 20 h, respectively, washed with PBS, and cell viability was determined. The additional incubation periods were required for peroxynitrite and 4-hydroxynonenal to evoke maximal cytotoxicity.
(§2) Cell viability was determined by spectroscopic measurement of the reduction of MTT (Carmichael, J., DeGraff, W. G., Gazdar, A. F., Minna, J. D. & Mitchell, J. B. (1987) Cancer Res. 47, 936-942). The culture media were discarded after the designated incubation periods, the cells were washed three times with PBS by use of a microtiter plate washer (Ultrawash Plus, Dynex Technologies, Chantilly, Va.). Each well then received 150 μl of an MTT solution (0.5 mg/ml) in serum-free medium. The plates were incubated for 2 h at 37° C., the MTT solution was discarded, 100 μl of DMSO were added to each well, and the plates were shaken at 200 rpm on an orbital shaker for 5 min. The absorbances of the wells were determined at 555 nm with a microtiter plate reader (Spectra Max Plus, Molecular Devices, Sunnyvale, Calif.). The absorbance of reduced MIT was then compared at each inducer and oxidant concentration to that of untreated control cells that received only the vehicle in which sulforaphane (DMSO) and menadione (DMSO or PBS) were dissolved. In each experiment three identical 96-well plates were used and the means of the absorbance values, the standard deviations of these means, and their coefficients of variation were calculated.
(§3) Dose-effect analyses were performed according to the Median Effect Equation, by use of a computer program (Chou, T. C. & Hayball, M. (1996) CalcuSyn for Windows 3.1 and 95: multiple dose effect analyzer and manual for IBM-PC, Biosoft, Cambridge, U.K). The equation: fa/fu=[D/Dm]^m, where fa is the fraction of cells affected by the oxidant, fu is the fraction unaffected (i.e., 1-fa), D is the dose of oxidant required to produce the effect fa, Dm is the concentration of oxidant required to produce a 50% effect, i.e., when fa=fu, and the slope m is a measure of the sigmoidicity of the dose-response curve, and is therefore a measure of cooperativity. The results are analyzed by plotting log(fa/fu) with respect to log D of the oxidant. The computer program provides the slope (m) of the curves, and the goodness of fit (r^2) to linearity.

[2] = tested on: Retina Pigment Epithelium Cell; experiment: Photooxidative damage by all-trans-retinal and 365 nm light, protection by sulforaphane (cell survival); settings: sulforaphane 0.00 μM
Procedure: There is accumulating evidence that chronic exposure to sunlight plays a role in some degenerative diseases, for instance, age-related macular degeneration (AMD). We have, therefore, carried out an experiment of protection of human RPE cells against photooxidative damage mediated by all-trans-retinal, which exists in human retina and is a critical component of the visual cycle.
as §2
To examine the protective effect of sulforaphane against photooxidative damage mediated by all-trans-retinal and light exposure, the cells were treated with 0-100 μM of all-trans-retinal for 2 hours and light exposure at 365 nm for 20 min after incubation with 0-5 μM of sulforaphane for 24 hours.

[3] = tested on: HaCaT cells; experiment: tert-Butyl hydroperoxide cytotoxicity (MTT, median effect analysis) and protection by sulforaphane
Procedure: Mouse L1210 leukemia cells, a gift from Dr. Joseph G. Cory, East Carolina State University, Greenville, N.C., were grown in RPMI 1640 medium supplemented with 10% horse serum. All cultures were incubated in a humidified atmosphere of 5% CO2 at 37° C. Media and sera were obtained from Life Technologies (Rockville, Md.).
as §1, §2, §3

[4] = ARPE-19, mean over sulforaphane 0-2.5 μM

SMILES: CCCCCC(O)C=CC=O (centres unmarked) [4-hydroxynonenal, 4-Hydroxynon-2-enal, reference compound]
- m (slope of median effect plot) for 4-hydroxynonenal ([1]; ARPE-19, 4-hydroxynonenal 4 h, sulforaphane 0.00 μM): 2.85
- mean slope m for 4-hydroxynonenal [1, 4]: 2.66
- EC50 ([1]; ARPE-19, 4 h, ARPE-19, 4-hydroxynonenal 4 h, sulforaphane 0.00 μM, read-out: Dm (median effect concentration) of 4-hydroxynonenal): 8.7 µM

SMILES: O=NOO [Peroxynitrite, reference compound]
- mean slope m for peroxynitrite [1, 4]: 6.29
- m (slope of median effect plot) for peroxynitrite ([1]; ARPE-19, peroxynitrite (from SIN-1) 2 h, sulforaphane 0.00 μM): 6.07
- EC50 ([1]; ARPE-19, 2 h, ARPE-19, peroxynitrite (from SIN-1) 2 h, sulforaphane 0.00 μM, read-out: Dm (median effect concentration) of peroxynitrite): 1440 µM

SMILES: CC1=C(/C=C/C(C)=C/C=C/C(C)=C/C=O)C(C)(C)CCC1 [All-trans-Retinal, all-trans-retinal, reference compound]
- Survival ([2]; 365 nm light, all-trans-retinal 12.5 μM): 83.6%
- Survival ([2]; 365 nm light, all-trans-retinal 25 μM): 41.9%
- Survival ([2]; 365 nm light, all-trans-retinal 50 μM): 9.4%
- Survival ([2]; 365 nm light, all-trans-retinal 100 μM): 3.1%
- Survival ([2]; in dark, all-trans-retinal 12.5 μM): 96.3%
- Survival ([2]; in dark, all-trans-retinal 25 μM): 97.6%
- Survival ([2]; in dark, all-trans-retinal 50 μM): 96.8%
- Survival ([2]; in dark, all-trans-retinal 100 μM): 75.0%

SMILES: CC(C)(C)OO [tert-Butyl hydroperoxide, Tert-Butyl hydroperoxide, reference compound]
- EC50 ([3]; Homo sapiens, 8 h, read-out: Dm (median effect concentration) of tert-butyl hydroperoxide): 63.5 µM
- slopes of the median effect plots for tert-butyl hydroperoxide ([3]; over the sulforaphane concentrations): 0.8-1.2
- m (slope of median effect plot) for tert-butyl hydroperoxide ([3]; tert-butyl hydroperoxide 8 h, sulforaphane 0.00 μM): 0.899
- mean slope m for tert-butyl hydroperoxide [1, 4]: 1.93
- m (slope of median effect plot) for tert-butyl hydroperoxide ([1]; ARPE-19, tert-butyl hydroperoxide 16 h, sulforaphane 0.00 μM): 2.52
- EC50 ([1]; ARPE-19, 16 h, read-out: Dm (median effect concentration) of tert-butyl hydroperoxide): 95.8 µM
